Experimental data: patent US12404241B2 (Celgene Corporation, priority 2018, dated 2025)

Target: T1, AR (Homo sapiens, UniProt P10275)
T1 construct: endogenous in cells; host or cells: VCaP cells
T1 sequence (P10275 1-920): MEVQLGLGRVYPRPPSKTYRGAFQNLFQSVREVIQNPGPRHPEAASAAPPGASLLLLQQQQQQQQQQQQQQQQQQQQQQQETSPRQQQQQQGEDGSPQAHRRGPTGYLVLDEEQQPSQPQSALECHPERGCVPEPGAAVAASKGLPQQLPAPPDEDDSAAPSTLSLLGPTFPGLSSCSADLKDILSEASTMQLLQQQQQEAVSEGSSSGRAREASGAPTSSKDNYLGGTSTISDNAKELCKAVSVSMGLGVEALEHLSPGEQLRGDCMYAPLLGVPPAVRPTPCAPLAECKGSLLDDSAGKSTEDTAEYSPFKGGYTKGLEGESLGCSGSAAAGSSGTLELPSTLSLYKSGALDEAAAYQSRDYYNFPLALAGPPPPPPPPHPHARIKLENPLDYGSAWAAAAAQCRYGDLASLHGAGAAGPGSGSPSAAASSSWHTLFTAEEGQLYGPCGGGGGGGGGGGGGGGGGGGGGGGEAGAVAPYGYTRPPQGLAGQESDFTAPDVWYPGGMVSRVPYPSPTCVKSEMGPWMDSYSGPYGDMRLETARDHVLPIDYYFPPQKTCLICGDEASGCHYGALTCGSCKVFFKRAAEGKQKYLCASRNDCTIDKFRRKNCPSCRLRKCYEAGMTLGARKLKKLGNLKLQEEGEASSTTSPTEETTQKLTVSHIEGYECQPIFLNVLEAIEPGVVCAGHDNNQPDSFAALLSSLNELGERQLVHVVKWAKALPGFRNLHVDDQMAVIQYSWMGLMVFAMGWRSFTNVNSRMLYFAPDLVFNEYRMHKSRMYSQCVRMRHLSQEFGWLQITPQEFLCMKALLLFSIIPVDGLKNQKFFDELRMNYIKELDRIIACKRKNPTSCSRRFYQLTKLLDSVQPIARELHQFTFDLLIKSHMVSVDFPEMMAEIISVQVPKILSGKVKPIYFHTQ
Assay: VCAP AR Degradation Assay
Format: cell-based
Conditions: for Y (AR degradation efficiency, % of DMSO control): class symbols *; for DC50: class symbols A-C, read-out: DC50
Summary of the method: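 AR protein in lysates quantified by sandwich ELISA after 24 h exposure of VCaP cells at 37 °C to 10 concentrations (1:3 steps, 5 μM top, final). Four-parameter logistic fit of percent-of-DMSO levels gave DC50 (50% degradation), EC50 and minimal AR level Y.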

Structure (SMILES)	Y (AR degradation efficiency, % of DMSO control)	DC50 [nM]
CCc1cc(N2C(=S)N(c3ccc(C#N)c(C(F)(F)F)c3)C(=O)C2(C)C)ccc1OCCN1CCN(CC(=O)Nc2cccc(N[C@@H]3CCC(=O)NC3=O)c2)[C@H](C)C1 [Example 112, 2-((R)-4-(2-(4-(3-(4-cyano-3-(trifluoromethyl)phenyl)-5,5-dimethyl-4-oxo-2-thioxoimidazolidin-1-yl)-2-ethylphenoxy)ethyl)-2-methylpiperazin-1-yl)-N-(3-((R)-2,6-dioxopiperidin-3-ylamino)phenyl)acetamide]	* (0<Y<=25%)	< 100
CC(C)c1cc(N2C(=S)N(c3cnc(C#N)c(C(F)(F)F)c3)C(=O)C2(C)C)ccc1OCCN1C[C@@H](C)N(CC(=O)Nc2cccc(NC3CCC(=O)NC3=O)c2)C[C@H]1C (stereo partly drawn) [Example 192, 2-((2R,5R)-4-(2-(4-(3-(6-cyano-5-(trifluoromethyl)pyridin-3-yl)-5,5-dimethyl-4-oxo-2-thioxoimidazolidin-1-yl)-2-isopropylphenoxy)ethyl)-2,5-dimethylpiperazin-1-yl)-N-(3-(2,6-dioxopiperidin-3-ylamino)phenyl)acetamide]	** (25%<Y<=35%)	100 to 500
CCc1cc(N2C(=S)N(c3ccc(C#N)c(C(F)(F)F)c3)C(=O)C2(C)C)ccc1OCCN1CC2CCC(C1)N2CC(=O)Nc1cccc(NC2CCC(=O)NC2=O)c1 (centres unmarked) [Example 177, 2-(3-(2-(4-(3-(4-cyano-3-(trifluoromethyl)phenyl)-5,5-dimethyl-4-oxo-2-thioxoimidazolidin-1-yl)-2-ethylphenoxy)ethyl)-3,8-diazabicyclo[3.2.1]octan-8-yl)-N-(3-(2,6-dioxopiperidin-3-ylamino)phenyl)acetamide]	* (0<Y<=25%)	100 to 500
CCc1cc(N2C(=S)N(c3ccc(C#N)c(C(F)(F)F)c3)C(=O)C2(C)C)ccc1OCCN1CCN([C@H](C)C(=O)Nc2cccc(NC3CCC(=O)NC3=O)c2)[C@@H](C)C1 (stereo partly drawn) [Example 274, (2R)-2-((S)-4-(2-(4-(3-(4-cyano-3-(trifluoromethyl)phenyl)-5,5-dimethyl-4-oxo-2-thioxoimidazolidin-1-yl)-2-ethylphenoxy)ethyl)-2-methylpiperazin-1-yl)-N-(3-(2,6-dioxopiperidin-3-ylamino)phenyl)propanamide]	* (0<Y<=25%)	< 100
